Results reported in ChEMBL document CHEMBL2311336 (Bioorg Med Chem Lett, 2013).

Molecular target: Tumour suppressor p53/oncoprotein Mdm2 (Homo sapiens, UniProt Q00987)
Experiment: Inhibition of human His-tagged p53/GST-tagged MDM2 interaction after 60 mins by chemiluminescence assay
Type: protein assay

Chain of Tumour suppressor p53/oncoprotein Mdm2 (P04637 whole entry): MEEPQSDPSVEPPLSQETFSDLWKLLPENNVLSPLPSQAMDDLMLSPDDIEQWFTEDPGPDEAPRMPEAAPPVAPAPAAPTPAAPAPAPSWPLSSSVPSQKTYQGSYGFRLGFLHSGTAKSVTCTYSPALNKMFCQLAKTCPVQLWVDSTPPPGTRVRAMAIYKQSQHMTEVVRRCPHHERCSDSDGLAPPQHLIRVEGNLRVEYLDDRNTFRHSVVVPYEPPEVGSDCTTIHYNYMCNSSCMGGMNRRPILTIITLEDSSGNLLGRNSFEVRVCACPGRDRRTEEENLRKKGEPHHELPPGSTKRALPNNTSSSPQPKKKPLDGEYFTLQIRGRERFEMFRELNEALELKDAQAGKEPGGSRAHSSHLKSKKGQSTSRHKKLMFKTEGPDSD
Chain of Tumour suppressor p53/oncoprotein Mdm2 (Q00987 whole entry): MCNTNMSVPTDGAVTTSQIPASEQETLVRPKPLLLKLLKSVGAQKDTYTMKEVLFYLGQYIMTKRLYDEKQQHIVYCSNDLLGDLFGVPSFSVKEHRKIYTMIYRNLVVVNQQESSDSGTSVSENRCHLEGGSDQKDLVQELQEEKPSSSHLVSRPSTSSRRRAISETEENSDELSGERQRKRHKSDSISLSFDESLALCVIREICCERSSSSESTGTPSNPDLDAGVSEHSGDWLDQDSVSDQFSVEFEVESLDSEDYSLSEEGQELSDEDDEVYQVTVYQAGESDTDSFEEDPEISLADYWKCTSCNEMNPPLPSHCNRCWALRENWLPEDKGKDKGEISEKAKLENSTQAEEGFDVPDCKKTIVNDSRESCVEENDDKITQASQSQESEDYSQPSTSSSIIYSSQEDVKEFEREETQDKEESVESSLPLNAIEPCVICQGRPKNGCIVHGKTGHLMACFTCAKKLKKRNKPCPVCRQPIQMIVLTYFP

| IC50 [nM] | Structure (SMILES) |
| --- | --- |
| 1500 | CC(C)C1=C(C(=O)N2CCNC(=O)C2)SC2=N[C@](C)(c3ccc(Cl)cc3)[C@H](c3ccc(Cl)cc3)N21 |
| 26 | CC(C)C1=C(C(=O)N2CCC[C@H]2C(=O)N2CCOCC2)SC2=N[C@@](C)(c3ccc(Cl)cc3)[C@@H](c3ccc(Cl)cc3)N21 |
| 46 | COCCN(C)C(=O)[C@@H]1CCCN1C(=O)C1=C(C(C)C)N2C(=N[C@@](C)(c3ccc(Cl)cc3)[C@H]2c2ccc(Cl)cc2)S1 |
| 42 | CC(C)C1=C(C(=O)N(C)C)SC2=NC(C)(c3ccc(Cl)cc3)C(c3ccc(Cl)cc3)N21 (racemic) |
| 940 | CC(C)C1=C(C(=O)N2CNC(=O)C2)SC2=NC(C)(c3ccc(Cl)cc3)C(c3ccc(Cl)cc3)N21 (racemic) |
| 92 | CC(C)C1=C(C(=O)N2CCNC(=O)C2)SC2=N[C@@](C)(c3ccc(Cl)cc3)[C@@H](c3ccc(Cl)cc3)N21 |
| 37 | CC(C)C1=C(C(=O)N2CCC[C@H]2C(=O)N2C[C@@H](C)N[C@@H](C)C2)SC2=N[C@@](C)(c3ccc(Cl)cc3)[C@@H](c3ccc(Cl)cc3)N21 |
| 79 | CC(C)C1=C(C(=O)N2CCC[C@H]2C(=O)N2CCNC(=O)C2)SC2=N[C@@](C)(c3ccc(Cl)cc3)[C@@H](c3ccc(Cl)cc3)N21 |
| 410 | CC(C)C1=C(C(=O)N2CCNC(=O)C2)SC2=NC(C)(c3ccc(Cl)cc3)C(c3ccc(Cl)cc3)N21 (racemic) |
| 26 | CC(C)C1=C(C(=O)N(C)C)SC2=N[C@@](C)(c3ccc(Cl)cc3)[C@@H](c3ccc(Cl)cc3)N21 |
| 200 | CC(C)C1=C(C(=O)N2CCCC2)SC2=NC(C)(c3ccc(Cl)cc3)C(c3ccc(Cl)cc3)N21 (racemic) |
| 170 | CC(C)C1=C(C(=O)N2CCCC[C@H]2C(=O)N(C)C)SC2=NC(C)(c3ccc(Cl)cc3)C(c3ccc(Cl)cc3)N21 (mixture of isomers) |
| 23 | CC(C)C1=C(C(=O)N2CCC[C@H]2C(=O)N2CCN(C)CC2)SC2=N[C@@](C)(c3ccc(Cl)cc3)[C@@H](c3ccc(Cl)cc3)N21 |
| 780 | CC(C)C1=C(C(N)=O)SC2=NC(C)(c3ccc(Cl)cc3)C(c3ccc(Cl)cc3)N21 (racemic) |
| 66 | CC(=O)N1CCN(C(=O)[C@@H]2CCCN2C(=O)C2=C(C(C)C)N3C(=N[C@@](C)(c4ccc(Cl)cc4)[C@H]3c3ccc(Cl)cc3)S2)CC1 |
| 1100 | CNC(=O)C1=C(C(C)C)N2C(=NC(C)(c3ccc(Cl)cc3)C2c2ccc(Cl)cc2)S1 (racemic) |

Molecular target: E3 ubiquitin-protein ligase Mdm2 (Homo sapiens, UniProt Q00987, L33E)
Experiment: Inhibition of human His-tagged p53 (1 to 132 amino acid residues)/GST-tagged MDM2 L33E mutant (25 to 108 amino acid residues) interaction by HTRF assay

Chain of E3 ubiquitin-protein ligase Mdm2 (Q00987 whole entry L33E, the tested form may be a part): as the sequence (Q00987 whole entry) above, with L33E counted along it

| IC50 [nM] | Structure (SMILES) |
| --- | --- |
| 140 | CC(C)C1=C(C(=O)N2CC[C@H]2C(=O)N(C)C)SC2=N[C@@](C)(c3ccc(Cl)cc3)[C@@H](c3ccc(Cl)cc3)N21 |
